Entries after “also recorded” stand apart in the source; their conditions may differ. Where two headings read alike, the source gives them in different places.

By Ki is commonly meant a measure of affinity in units of concentration, obtained from inhibition or displacement.

One assay addresses TbPARP (Trypanosoma brucei brucei, UniProt Q0PW89). The assay is described as follows: biochemical. Particulars: 500 nM NAD+, 11 min at 25 °C, mean of three dose-response curves. The protocol: The optimal conditions for the activity of purified recombinant TbPARP, were determined by using a fluorometric activity assay. Incubation at 25 °C with shaking at 300 rpm was placed in propylene plates of 96 wells (Greiner BioOne). To terminate the reaction 2 M KOH (20 μL) and 20 % acetophenone in ethanol (20 μL) were added to each well. After incubating for 10 min at 4 °C, 90 μl of 88 % formic acid was added and incubated in an oven at 110 °C for 5 min. This reaction converts remaining NAD^+ to a fluorescent derivative. After incubation, the plate was allowed to cool down for 15 min and fluorescence was measured using excitation wavelengths of 372 nm and 444 nm for excitation and emission, respectively (Varioskan Flash 4.00.53, Thermo Scientific). Consumption of NAD^+ was detected by the decrease in fluorescence. Experiments were done in triplicates. The activity in control wells were kept under 25 % by optimizing the protein concentration and the incubation time, in order to get a robust signal without slowing down the enzyme activity.
A small set of cations was also tested in order to verify whether the enzymatic activity would depend on them. […] The final assay buffer was 100 mM Na2HPO4/NaH2PO4 pH 7, 500 μM TCEP, 1 μg/μL BSA, and 0.025 mg/mL activated DNA (Sigma Aldrich) and 500 nM NAD^+ (Sigma Aldrich).
Thirty - one compounds were tested. Dilutions from DMSO stocks were made (100 μM, 10 μM and 1 μM) and aliquots of those were used in the enzymatic reaction with 10-fold dilution. Inhibitor solutions were added in triplicates to the plate, followed by the addition of the NAD^+. Reactions were initiated by addition of TbPARP diluted in the same buffer (10 nM). The plate was incubated at 25 °C with shaking (300 rpm, Biosan PST-100 HL) for 45 min. […] To detect any potential fluorescence inherent in the compounds, control reactions were carried out separately with compound alone at 10 μM final concentration. The possible fluorescence quenching properties were controlled using wells within the experimental plate containing the compound with 500 nM NAD^+ in the assay buffer.
The IC50 value for 3-AB (Alexis Biochemicals) was also determined to be used as a reference. Briefly, reaction mix together with the inhibitors at half log dilutions were added to a 96-well plate (10 data points). Reactions were incubated for 11 min at 25 °C after initiating the reaction with the addition of 5 nM TbPARP at a final volume of 50 μL. Measurement of the remaining NAD^+ is described in section Screening of TbPARP inhibitors. All reactions were performed in triplicates and three independent dose response curves were fitted for each inhibitor. Control wells with only NAD^+ or NAD^+ and enzyme were used in the curve fitting, as detailed in our previous work.

A further assay concerns hPARP-1. The note with it: cited from earlier work.
In assay [1] the test system is Trypanosoma brucei bloodstream parasites. The assay is described as follows: Effect of inhibitors on bloodstream parasite growth (Neubauer count, 24 h). In kind it is cell-based. The note with it: Olaparib 29 nM, Rucaparib 1.5 μM, 3-AB 580 μM, Nifurtimox 2.5 μM. Here is the method: Trypanosoma brucei bloodstream parasites were grown in HMI-11 medium for 24 h until reaching a density of 5×10^5 cells/mL. Aliquots of 100 μL were distributed in 96-well plates and inhibitors were added at different concentrations as indicated in the figures. After an incubation period of 24 h, the parasite number was counted with a Neubauer chamber. In all experiments, triplicates were done for each condition tested and data significance was assessed by one-way Anova (GraphPad Prism5.03 version Software).

In another assay the test system is T. cruzi epimastigotes. Particulars: cited from earlier work.
Assay [2] has as its system PAR formation in procyclic T. brucei. The assay is described as follows: In culture inhibition of PAR formation after H2O2, Dot blot, procyclic form. In kind it is cell-based, Trypanosoma brucei. The note with it: for reduction of PAR synthesis in the parasite: discussion, parasite form not given; for inhibition of PAR formation in culture, procyclic form: inhibitor at 10-fold in vitro IC50 (0.23 μM 4-ANI; 65 nM EB-47; 29 nM Olaparib; 1.5 μM Rucaparib), 30 min preincubation, 500 μM H2O2 10 min. The protocol:
(§1) T. brucei procyclic strain 29–13 [29] was cultured at 28 °C in SDM-79 (Bioscience) containing 10 % (v/v) FCS and 0002 % hemin. T. brucei bloodstream strain 427 90-13 [29] was cultured at 37 °C in HMI-11 (Iscore’s Modified Dulbecco’s Medium (Invitrogen), 100 mg/L sodium pyruvate, 136.1 mg/L hypoxantine, 38.7 mg/L thymidine, 28.22 mg/L bathocuproinedisulfonic acid, 181.8 mg/L L-cysteine, 3.024 mg/L sodium carbonate, 196 μM β-mercaptoethanol) containing FCS (10 % v/v). Parasite viability was analyzed by microscopy.
(§2) For in culture inhibition assays, parasites of the procyclic form of Trypanosoma brucei were grown for 48 h up to a density of 5×10^6 parasites/mL. Parasites of the bloodstream form were grown for 24 h up to a density of 5×10^5 parasites/mL. In both cases, cells were harvested and preincubated for 30 min or 10 min in PBS-Glucose 2 % with inhibitors added, after which the parasites were treated with 500 μM or 250 μM hydrogen peroxide for procyclic and bloodstream forms, respectively, for 10 min.

The subject of assay [3] is Trypanosoma brucei procyclic parasites. The assay is described as follows: Effect of inhibitors on procyclic parasite growth (OD600, 48 h). In kind it is cell-based. Particulars: 2.5 μM, 48 h, positive control. Here is the method: Trypanosoma brucei procyclic parasites were grown in SDM-79 medium for 48 h until reaching a density of 5×10^6 cells/mL. Aliquots of 200 μl were distributed in 96-well plates and inhibitors were present at different final concentrations, as indicated in the figures. Nifurtimox (NFX) was used as a positive control in concentrations ranging from 0.25–25 μM. Culture density was checked by OD600 after 48 h.
In all experiments, triplicates were done for each condition tested and data significance was assessed by one-way Anova (GraphPad Prism5.03 version Software).

In assay [4] the test system is PAR formation in bloodstream T. brucei. Kind of assay: In culture inhibition of PAR formation after H2O2, Dot blot, bloodstream form. The format is cell-based, Trypanosoma brucei. Particulars: inhibitor at 10-fold in vitro IC50 (29 nM Olaparib; 1.5 μM Rucaparib), 10 min preincubation, 250 μM H2O2. The protocol:
as §1, §2

Assay [5] has as its system RNAi-TbPARP procyclic parasites. The assay is described as follows: Growth of Tet induced RNAi-TbPARP procyclic parasites with inhibitor. In kind it is cell-based, Trypanosoma brucei. Particulars: 290 nM inhibitor. From the text:
A fragment of the TbPARP cDNA (nucleotides 1030 to 1445) [GenBank:DQ679800, Tb927.5.3050] and a fragment of the TbPARG cDNA (nucleotides 593 to 979) [Tb927.9.12810] were sub-cloned into the tetracycline-inducible expression vector p2T7^TI-177 [30] to down-regulate the genes of interest. In addition, whole TbPARP cDNA sequence was sub-cloned into the expression vector p2216 [31] (PCR primer sequences available upon request) to over-express the PARP-eYFP fusion gene.
Not I-linearized RNAi-TbPARP and RNAi-TbPARG constructs and the over-expression construct (10 μg) were transfected into procyclic parasites by electroporation, as described by Downey et al.. The selection of the transfectants was carried out with 20 μg/mL zeocin, and dsRNA and over-expression of the fusion protein was induced with 1.0 μg/mL tetracycline for 3 days.

Assay [6] has as its system T. brucei procyclic parasites. The assay is described as follows: Cell survival (motility) after H2O2 treatment with PARP inhibitor. The note with it: 29 nM inhibitor.
Method: Cell survival was determined by incubating 500 μL of 1 × 10^6 parasites/mL culture in 24-well cell culture plates (Cellstar) for 6 h with different concentrations of H2O2 (30 μM, 95 μM, 300 μM and 950 μM) and counting motile parasites over the total number using a Neubauer chamber. Each condition was tested in triplicates. Statistical significance was assessed with two-way Anova followed by Bonferroni test (version 5.03 of GraphPad Prism for Windows).
Assay [7] relates to wild type procyclic parasites. The assay is described as follows: Annexin V / PI flow cytometric cell death analysis. The format is cell-based, Trypanosoma brucei. The note with it: 10 μg/mL, apoptosis-like positive control. Here is the method: Parasites were treated with 1 mM H2O2 for different time intervals and the cell death pathway involved was assessed as it has been detailed in our previous work. The exposure of wild type procyclic parasites for 6 and 12 h to 10 μg/mL Concanavalin A type IV (Sigma-Aldrich) confirmed the apoptosis-like death pathway (positive control). […] Results were analyzed with Cyflogic v 1.2.1 software.
(In general: In flow cytometry, cells or beads pass a laser one at a time.)

Setting [8] is: 5 nM TbPARP, read-out: TbPARP IC50.
Setting [9] is: 5 nM TbPARP, read-out: TbPARP pIC50 ± SEM (converted).

Chain of TbPARP (Q0PW89 entry or part of it): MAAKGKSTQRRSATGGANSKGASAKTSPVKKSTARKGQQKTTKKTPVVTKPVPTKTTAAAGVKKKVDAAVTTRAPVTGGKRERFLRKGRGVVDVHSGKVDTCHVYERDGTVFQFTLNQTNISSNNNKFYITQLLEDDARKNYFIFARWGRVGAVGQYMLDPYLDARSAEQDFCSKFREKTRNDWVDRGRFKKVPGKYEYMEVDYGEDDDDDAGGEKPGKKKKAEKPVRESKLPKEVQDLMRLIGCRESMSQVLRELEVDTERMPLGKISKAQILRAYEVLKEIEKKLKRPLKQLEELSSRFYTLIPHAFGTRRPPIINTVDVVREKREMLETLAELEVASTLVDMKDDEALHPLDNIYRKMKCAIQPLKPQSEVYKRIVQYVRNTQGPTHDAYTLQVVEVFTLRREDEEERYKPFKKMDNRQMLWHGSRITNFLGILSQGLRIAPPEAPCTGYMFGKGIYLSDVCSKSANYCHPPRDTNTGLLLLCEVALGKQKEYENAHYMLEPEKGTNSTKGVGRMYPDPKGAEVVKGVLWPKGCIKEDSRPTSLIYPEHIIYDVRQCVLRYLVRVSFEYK

Take `O=c1[nH]ccc2c(O)cccc12` [1,5-Isoquinolinediol, 5-hydroxy-1,2-dihydroisoquinolin-1-one]: the IC50 on TbPARP (setting [8]) was 1200 nM; on TbPARP (setting [9]), 1230 nM; in the assay on hPARP-1 (reported for human PARP-1) it was 390 nM.
For the molecule `NC(=O)c1cccc(N)c1` [Compound 3-AB, 3-aminobenzamide], the IC50 at TbPARP (setting [8]) was 58000 nM; at TbPARP (setting [9]) it was 57500 nM; in the assay on hPARP-1 (reported for human PARP-1), 22000 nM. For the same molecule, in [1], the “effect on bloodstream parasite growth” value was “did provoke a decrease on bloodstream parasite growth”. In the assay on T. cruzi epimastigotes (reported earlier, reference not given), the “effect on T. cruzi growth” value is given as “reported to diminish T. cruzi growth”.
For the molecule `Nc1ccc2c3c(cccc13)C(=O)NC2=O` [Compound 4-ANI, 8-amino-3-azatricyclo[7.3.1.0^{5,13}]trideca-1(12),5,7,9(13),10-pentaene-2,4-dione], the IC50 on TbPARP (setting [8]) was 23 nM; at TbPARP (setting [9]) it was 22.9 nM; with hPARP-1, 180 nM. The “reduction of PAR synthesis in the parasite” value in assay [2] is given as “not able to reduce PAR synthesis in the parasite”. In addition, in [2], the “inhibition of PAR formation in culture, procyclic form” value (“inhibition … procyclic form” below) was “scarcely inhibited the enzyme”.
As to `Nc1ncnc2c1ncn2[C@@H]1O[C@H](C(=O)N2CCN(CC(=O)Nc3cccc4c3CNC4=O)CC2)[C@@H](O)[C@H]1O` [EB-47, 2-(4-{[(2S,3S,4R,5R)-5-(6-amino-9H-purin-9-yl)-3,4-dihydroxyoxolan-2-yl]carbonyl}piperazin-1-yl)-N-(1-oxo-2,3-dihydro-1H-isoindol-4-yl)acetamide], the IC50 at TbPARP (setting [8]) worked out at 6.5 nM. Moreover, the IC50 on TbPARP (setting [9]) is 6.46 nM. Besides, in assay [2], the “reduction of PAR synthesis in the parasite” value is “not able to reduce PAR synthesis in the parasite” and the “inhibition … procyclic form” value is “did not inhibit TbPARP at all”.
For the molecule `Cc1nc(=O)c2cccc(O)c2[nH]1` [NU1025, 8-hydroxy-2-methyl-1,4-dihydroquinazolin-4-one], the IC50 against TbPARP (TbPARP IC50, […] nM TbPARP) is 680 nM; against TbPARP (TbPARP pIC50 ± SEM, 5 nM TbPARP), 676 nM; in the assay on hPARP-1 (reported for human PARP-1), 400 nM.
Consider `CC1CS(=O)(=O)CCN1/N=C/c1ccc([N+](=O)[O-])o1` (stereo not shown) [Nifurtimox], for which the “effect on procyclic parasite growth” value in assay [3] is “slowed down procyclic parasite growth”. Further, the “effect on bloodstream parasite growth” value in assay [1] is given as “did provoke a decrease on bloodstream parasite growth”.
Turning to `O=C(c1cc(Cc2n[nH]c(=O)c3ccccc23)ccc1F)N1CCN(C(=O)C2CC2)CC1` [Olaparib, 4-({3-[(4-cyclopropanecarbonylpiperazin-1-yl)carbonyl]-4-fluorophenyl}methyl)-1,2-dihydrophthalazin-1-one], the results for the IC50 at TbPARP (setting [8]) and on TbPARP (setting [9]) were 2.9 nM and 2.95 nM, respectively. In addition, in [2], the “inhibition … procyclic form” value is recorded as “inhibited PAR formation in culture; also recorded: able to reduce PAR formation”. Further, in [4], the “inhibition of PAR formation in culture, bloodstream form” value is “able to inhibit PAR formations in culture; also recorded: able to reduce PAR formation”. The “effect on bloodstream parasite growth” value in assay [1] is “not able to significantly affect T. brucei growth or survival”. Moreover, the “growth rate of Tet induced RNAi-TbPARP procyclic parasites” value in [5] is “no change in growth rate”. Besides, in the assay with T. cruzi epimastigotes (25 nM), the “decrease in growth of T. cruzi epimastigotes in culture” value is given as 50%. Also, the “parasite viability (motility) in presence versus absence of inhibitor” value in assay [6] (30 μM H2O2, 6 h) is “no difference in parasite viability”; in [6] (95 μM H2O2, 6 h), “reduced the loss of viability induced by the oxidant”. Also, the “parasite motility in presence versus absence of inhibitor” value in assay [6] (300 μM H2O2, 6 h, not statistically significant) is listed as “slight protective effect”.
Consider `CN(C)CC(=O)Nc1ccc2[nH]c(=O)c3ccccc3c2c1` [PJ-34, 2-(dimethylamino)-N-(6-oxo-5,6-dihydrophenanthridin-2-yl)acetamide], for which the IC50 on TbPARP (setting [8]) was 580 nM; on TbPARP (setting [9]), 589 nM.
With `Oc1nc(C2CC2)nc2c1CSCC2` [RF03876, 2-cyclopropyl-5H,7H,8H-thiopyrano[4,3-d]pyrimidin-4-ol], the results for the IC50 on TbPARP (setting [8]) and on TbPARP (setting [9]) were 1100 nM and 1150 nM, respectively.
`C[C@]1(c2nc3c(C(N)=O)cccc3[nH]2)CCCN1` [Veliparib, 2-[(2R)-2-methylpyrrolidin-2-yl]-1H-1,3-benzodiazole-4-carboxamide]: the IC50 on TbPARP (setting [8]) and on TbPARP (setting [9]) was 49 nM each time. In addition, the Ki on hPARP-1 is 5 nM.
Consider Concanavalin A, for which the “cell death pattern (Annexin V incorporation)” value in assay [7] is listed as “typical apoptosis response with an increment in Annexin incorporation”.
